These results are taken from patent publication US6004966A, “Use of xanthine oxidase inhibitors as anti-ischaemic agents” (BTG International Limited, priority 1994, dated 1999).

For one assay, the target named is xanthine oxidase (Bos taurus, UniProt P80457). Nature of the assay: Xanthine oxidase inhibition assay (superoxide-dependent cytochrome c reduction). In kind it is biochemical. The conditions noted are these: for inhibition at 1 µM / inhibition at 5 µM / inhibition at 10 µM / inhibition at 50 µM / % Inhibition (of initial rate of reaction): n=3; for inhibition at 1 µM / inhibition at 5 µM / inhibition at 10 µM / inhibition at 50 µM: read-out: % Inhibition (of initial rate of reaction); for xanthine oxidase inhibition, result in words: statement under Table 4. As for the experimental part:
Superoxide produced from the oxidation of varying concentrations of xanthine to uric acid in the presence of xanthine oxidase (5×10^-3 U/ml) was quantified by the superoxide dismutase inhibitable reduction of […] (10 μM) at 550 nm with respect to time. Enzyme inhibition was determined at varying concentrations of the inhibitors.

Another assay deals with rat hearts. Nature of the assay: Heart ischaemia reperfusion studies (Langendorff perfused rat hearts). The arrangement: species or system Wistar rats. The settings on record: 150 μM in reperfusion perfusate, after 60 min aerobic perfusion following 50 min ischaemia, ±sem. As for the experimental part: Adult male Wistar rats (240-320 g) were anaesthetised intraperitoneally (i.p.) with sodium pentobarbital (Sagatal; 60 mg/kg and heparinised (100 IU/100 g body weight) through the femoral vein, and the heart excised in cold Krebs buffer. By Langendorff technique, the hearts were perfused at a constant pressure (100 mm H2 O) with Krebs bicarbonate buffer. The study was initiated by 30 min aerobic perfusion followed by a 50 min period of global ischaemia, achieved by clamping perfusion flow into the aorta, and finally by reperfusion over 60 min. A ballon was inserted into the left ventricle and inflated to a left ventricular end diastolic pressure (LVEDP) of 4 mm Hg and used to measure left ventricular developed pressure (LVDP) and heart rate (HR). In addition, the coronary effluent was collected over timed intervals as a measure of coronary flow (CF). Assessment of function was made 20 min after the start of the study and at 10 min intervals thereafter. SL301 treated hearts followed a similar protocol as above except that the drug was present in the reperfusion perfusate following the ischaemic insult.

In another assay the target is bovine xanthine oxidase (Bos taurus, UniProt P80457). Nature of the assay: Further xanthine oxidase inhibition studies, steady-state kinetic analysis (uric acid formation). It counts as biochemical. The settings on record: 37° C.; for manner of xanthine oxidase inhibition: pH 7.4, inhibitors 1-3 μM. As for the experimental part:
The study was conducted at 37° C. using 30 mU/ml bovine xanthine oxidase in 50 mM phosphate buffer (ph 7.4). The initial rate of uric acid formation was determined spectrophotometrically (292 nm) in the presence of varying concentrations of xanthine (5, 7.5, 10, 15 and 20 μM) and the inhibitors (1-3 μM). Enzyme-inhibitor dissociation constant (Ki) values were calculated from the apparent 1/Vmax values obtained at different inhibitor concentrations.

Assay [1] is described as follows: Hydroxyl radical scavenging activity (inhibition of NPG hydroxylation by peroxynitrous acid). The conditions noted are these: n=3. As for the experimental part:
Antioxidant activity is based on the selective hydroxylation of NPG (N,N'-[5-nitro-1,3-phenylene] bisglutaramide) by hydroxyl radicals produced from peroxynitrous acid (1 mM) by the addition of peroxynitrite stabilised in base to a mixture of NPG (1 mM) and varying concentrations of the anti-ischaemic agents prepared in 0.2M phosphate buffer, pH 7. The solutions were analysed by RP-HPLC. NPS (50 mM), an analogue of NPG, was used as an internal standard. Inhibition of hydroxylation of NPG is a direct measure of the hydroxyl radical scavenging ability of the inhibitors.
Values are expressed as percentage scavenging of the hydroxyl radicals % standard deviation, n=3.

Where [2] appears, read: Table 1, [Xanthine] = 50 μM, inhibitor 1 μM.
Where [3] appears, read: Table 1, [Xanthine] = 50 μM, inhibitor 5 μM.
Setting [4] is: Table 1, [Xanthine] = 50 μM, inhibitor 10 μM.
The mark [5] stands for this setting: Table 1, [Xanthine] = 50 μM, inhibitor 50 μM.
The mark [6] stands for this setting: Table 2, [Xanthine] = 25 μM, inhibitor 1 μM.
The mark [7] stands for this setting: Table 2, [Xanthine] = 25 μM, inhibitor 5 μM.
Setting [8] is: Table 2, [Xanthine] = 25 μM, inhibitor 10 μM.
Setting [9] is: Table 2, [Xanthine] = 25 μM, inhibitor 50 μM.
The mark [10] stands for this setting: Table 3, [Xanthine] = 25 μM, inhibitor 1 μM.
[11] abbreviates: Table 3, [Xanthine] = 25 μM, inhibitor 5 μM.
Where [12] appears, read: Table 3, [Xanthine] = 25 μM, inhibitor 10 μM.
[13] abbreviates: Table 3, [Xanthine] = 25 μM, inhibitor 50 μM.
[14] abbreviates: Table 4, [Xanthine] = 8 μM, inhibitor 1 μM.
[15] abbreviates: Table 4, [Xanthine] = 8 μM, inhibitor 5 μM.
[16] abbreviates: Table 4, [Xanthine] = 8 μM, inhibitor 10 μM.
Setting [17] is: Table 4, [Xanthine] = 8 μM, inhibitor 50 μM.

Read-outs that look alike come from different tables or passages of the source.

Sequence of bovine xanthine oxidase (P80457 whole entry): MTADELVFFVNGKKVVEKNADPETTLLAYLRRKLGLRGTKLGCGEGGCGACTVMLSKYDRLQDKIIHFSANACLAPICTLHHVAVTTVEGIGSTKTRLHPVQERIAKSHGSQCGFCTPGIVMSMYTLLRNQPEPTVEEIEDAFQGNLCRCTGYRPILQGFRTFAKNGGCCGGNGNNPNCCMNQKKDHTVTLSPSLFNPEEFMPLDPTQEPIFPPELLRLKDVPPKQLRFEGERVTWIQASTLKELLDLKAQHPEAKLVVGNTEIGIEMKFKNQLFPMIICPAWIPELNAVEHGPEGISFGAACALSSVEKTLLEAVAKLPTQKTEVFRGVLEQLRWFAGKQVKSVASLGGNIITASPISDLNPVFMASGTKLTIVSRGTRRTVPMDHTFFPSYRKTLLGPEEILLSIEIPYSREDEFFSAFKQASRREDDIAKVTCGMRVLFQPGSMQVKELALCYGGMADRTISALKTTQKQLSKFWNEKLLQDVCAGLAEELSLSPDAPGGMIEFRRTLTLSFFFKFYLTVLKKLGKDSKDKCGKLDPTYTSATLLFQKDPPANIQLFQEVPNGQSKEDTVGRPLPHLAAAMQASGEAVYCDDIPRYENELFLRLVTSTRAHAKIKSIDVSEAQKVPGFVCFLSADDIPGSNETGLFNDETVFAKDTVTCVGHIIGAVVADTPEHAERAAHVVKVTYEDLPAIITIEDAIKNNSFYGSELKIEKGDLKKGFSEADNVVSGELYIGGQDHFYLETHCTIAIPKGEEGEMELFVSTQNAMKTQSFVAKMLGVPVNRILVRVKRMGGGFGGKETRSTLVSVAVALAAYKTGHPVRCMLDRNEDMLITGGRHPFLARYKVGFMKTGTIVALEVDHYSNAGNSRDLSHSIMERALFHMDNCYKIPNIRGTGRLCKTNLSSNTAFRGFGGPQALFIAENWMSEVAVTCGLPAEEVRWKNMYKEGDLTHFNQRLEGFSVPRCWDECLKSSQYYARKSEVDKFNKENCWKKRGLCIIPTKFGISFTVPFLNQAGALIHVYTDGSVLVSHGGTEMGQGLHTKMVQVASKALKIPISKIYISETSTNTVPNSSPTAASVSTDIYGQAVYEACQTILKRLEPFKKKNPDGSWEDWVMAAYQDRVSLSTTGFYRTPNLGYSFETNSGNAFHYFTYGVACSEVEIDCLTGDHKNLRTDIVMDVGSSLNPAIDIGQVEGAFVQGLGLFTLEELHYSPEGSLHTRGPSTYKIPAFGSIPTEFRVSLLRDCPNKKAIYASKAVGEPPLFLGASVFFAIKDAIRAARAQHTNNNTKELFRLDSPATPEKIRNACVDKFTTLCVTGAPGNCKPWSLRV
Sequence of xanthine oxidase (P80457 whole entry): as above

As for `O=c1[nH]c(=O)c2c[nH]nc2[nH]1` [Oxypurinol, oxypurinol, reference compound], the inhibition at 1 µM worked out at 2.26% at xanthine oxidase (setting [2]), 2.26% on xanthine oxidase (setting [6]), 15.4% at xanthine oxidase (setting [10]) and 6.06% on xanthine oxidase (setting [14]). The inhibition at 5 µM at xanthine oxidase (setting [3]) was determined as 24.8%; on xanthine oxidase (setting [7]), 37.3%; at xanthine oxidase (setting [11]), 46.1%; on xanthine oxidase (setting [15]), 33.3%. For the same compound, the inhibition at 10 µM worked out at 32.3% on xanthine oxidase (setting [4]), 42.4% at xanthine oxidase (setting [8]), 30.8% on xanthine oxidase (setting [12]) and 45.5% at xanthine oxidase (setting [16]). Besides, the inhibition at 50 µM amounted to 67.4% on xanthine oxidase (setting [5]), 62.4% at xanthine oxidase (setting [9]), 43.6% on xanthine oxidase (setting [13]) and 48.5% on xanthine oxidase (setting [17]).
Consider `O=c1[nH]c2nccnc2c(=O)n1O` [SL301], for which the inhibition at 1 µM is 29.1% on xanthine oxidase (setting [2]), 37.1% on xanthine oxidase (setting [6]), 25% on xanthine oxidase (setting [10]) and 22.3% at xanthine oxidase (setting [14]). Moreover, the inhibition at 5 µM on xanthine oxidase (setting [3]) was determined as 31.8%; at xanthine oxidase (setting [7]) it was 51%; on xanthine oxidase (setting [11]) it was 41.7%; on xanthine oxidase (setting [15]) it was 41.8%. Further, the inhibition at 10 µM at xanthine oxidase (setting [4]) was determined as 39.6%; on xanthine oxidase (setting [8]) it was 58%; on xanthine oxidase (setting [12]), 58.3%; on xanthine oxidase (setting [16]) it was 49.8%. The inhibition at 50 µM on xanthine oxidase (setting [5]) was 63.2%; at xanthine oxidase (setting [9]), 72%; on xanthine oxidase (setting [13]), 77.8%; on xanthine oxidase (setting [17]), 70.9%. The “% recovery of pre-ischaemic LVDP (left ventricular developed pressure)” value in the assay with rat hearts (control 41 ± 13) came out at 76 ± 9%. Moreover, the “% recovery of pre-ischaemic HR (heart rate)” value in the assay with rat hearts (control 49 ± 13) was 90 ± 6%. Besides, in the assay with rat hearts (control 83 ± 6), the “% recovery of pre-ischaemic CF (coronary flow)” value is listed as 72 ± 4%. The same compound yielded a Ki at bovine xanthine oxidase (30 mU/ml bovine xanthine oxidase, 50 mM phosphate buffer pH 7.4, xanthine 5-20 μM) of 0.7 µM. At bovine xanthine oxidase, the “manner of xanthine oxidase inhibition” value is given as “competitive”. Moreover, the “% Activity (percentage scavenging of the hydroxyl radical)” value in assay [1] (Antioxidant Ratio 0.1) is recorded as 9.80%; in assay [1] (Antioxidant Ratio 0.5) it was 18.00%; in assay [1] (Antioxidant Ratio 1.0), 45.90%; in assay [1] (Antioxidant Ratio 5.0), 70.21%.
On to `O=c1c2[nH]cnc2ncn1O` [SL200, 1-hydroxy-6-oxopurine], for which, at xanthine oxidase, the “xanthine oxidase inhibition, result in words” value was “inactive”. The “% Activity (percentage scavenging of the hydroxyl radical)” value in assay [1] (Antioxidant Ratio 0.1) was determined as 25.13%; in assay [1] (Antioxidant Ratio 0.5) it was 48.49%; in assay [1] (Antioxidant Ratio 1.0) it was 69.54%; in assay [1] (Antioxidant Ratio 5.0) it was 90.09%.
For `O=c1c2nccnc2ncn1O` [SL300, 1-hydroxy-6-oxypyrazino-[2,3-d]-pterine], the inhibition at 5 µM at xanthine oxidase (setting [3]) is 1.84%; on xanthine oxidase (setting [7]), 9.09%; at xanthine oxidase (setting [11]) it was 5.55%; at xanthine oxidase (setting [15]) it was 12.6%. Further, the inhibition at 10 µM on xanthine oxidase (setting [4]) was 14.2%; at xanthine oxidase (setting [8]) it was 16.1%; on xanthine oxidase (setting [12]), 11.1%; on xanthine oxidase (setting [16]), 19.1%. The inhibition at 50 µM on xanthine oxidase (setting [5]) amounted to 16%; at xanthine oxidase (setting [9]), 34.7%; on xanthine oxidase (setting [13]), 27.8%; on xanthine oxidase (setting [17]) it was 38.5%. Further, the figures for the inhibition at 1 µM at xanthine oxidase (setting [6]) and at xanthine oxidase (setting [14]) were 13.8% and 6.15%, respectively. Also, the “% Activity (percentage scavenging of the hydroxyl radical)” value in assay [1] (Antioxidant Ratio 0.5) is 6.04%; in assay [1] (Antioxidant Ratio 1.0) it was 26.58%; in assay [1] (Antioxidant Ratio 5.0) it was 68.58%.
Regarding `O=c1[nH]c2[nH]ncc2c(=O)n1O` [SL101, 2,6-dioxo-1-hydroxypyrazolo-[3,4-d]-pyrimidine], the “xanthine oxidase inhibition, result in words” value on xanthine oxidase was “inactive”. The “% Activity (percentage scavenging of the hydroxyl radical)” value in assay [1] (Antioxidant Ratio 0.1) is on record as 8.25%; in assay [1] (Antioxidant Ratio 0.5) it was 20.96%; in assay [1] (Antioxidant Ratio 1.0), 39.71%; in assay [1] (Antioxidant Ratio 5.0), 72.79%.
In the case of `Oc1ncnc2[nH]ncc12` [Allopurinol, allopurinol, reference compound], the “% Inhibition (of initial rate of reaction)” value (“% Inhibition” below) at xanthine oxidase (setting [2]) stood at 13.83%; at xanthine oxidase (setting [3]), 22.90%; at xanthine oxidase (setting [4]), 20.63%; on xanthine oxidase (setting [5]), 59.18%; on xanthine oxidase (setting [7]), 2.41%; on xanthine oxidase (setting [8]), 14.09%. Further, the “% Inhibition” value at xanthine oxidase (setting [9]) stood at 58.76%; at xanthine oxidase (setting [10]), 23.88%; on xanthine oxidase (setting [11]), 64.57%; on xanthine oxidase (setting [12]), 44.88%; on xanthine oxidase (setting [13]), 68.50%; on xanthine oxidase (setting [14]), 17.40%. The “% Inhibition” value was 29.20% at xanthine oxidase (setting [15]), 49.85% at xanthine oxidase (setting [16]) and 73.45% at xanthine oxidase (setting [17]). The “manner of xanthine oxidase inhibition” value on bovine xanthine oxidase is recorded as “competitive”.
For the compound `O=c1[nH]c2[nH]cnc2c(=O)n1O` [SL201], at xanthine oxidase, the “xanthine oxidase inhibition, result in words” value is “inactive”.
Regarding `O=c1c2cn[nH]c2ncn1O` [SL100, 1, hydroxy-6-oxypyrazolo-[3,4-d]-pyrimidine], the “xanthine oxidase inhibition, result in words” value on xanthine oxidase was “inactive”. The “% Activity (percentage scavenging of the hydroxyl radical)” value turned out to be 6.56% in assay [1] (Antioxidant Ratio 0.1), 37.70% in assay [1] (Antioxidant Ratio 0.5), 65.58% in assay [1] (Antioxidant Ratio 1.0) and 100% in assay [1] (Antioxidant Ratio 5.0).
